In US8053197B2, “Methods for detecting and treating autoimmune disorders” (Oregon Health & Science University, priority 2004, dated 2011):

Key:
[1] = tested on: Foxp3; test: Foxp3 expression in CD4+ T cells of E2-treated, MOG-35-55 immunized mice at peak of EAE; type: in vivo, C57BL/6 mice; settings: peak of disease
Experimental: FIG. 2 is a graph illustrating real-time RT-PCR analysis of Foxp3. C57BL/6 and Esr^−/− mice were implanted with placebo or 2.5 mg E2 pellets and immunized 1 week later with 200 μg MOG-35-55 peptide in CFA with pertussis toxin on days 0 and +2. At the peak of clinical disease, mice were sacrificed and splenocytes sorted for CD4+ cells. cDNA was prepared and analyzed by real-time PCR to determine Foxp3 mRNA levels. Data are presented as Foxp3 relative to housekeeping gene L32. Error bars are standard deviation of triplicate samples.
Control lane is lysate of 293T cells transfected with Foxp3 cDNA. The CD25+ fraction (among CD4+) of each sample is noted above bars.
Female naïve or syngeneic pregnant (19 days) C57BL/6 mice were purchased from Jackson Laboratory (Bar Harbor, Me.). Estrogen receptor alpha knockout (Esrl^−/−) mice were purchased from Taconic (Germantown, N.Y.). Most experiments represent cells pooled from at least five mice per experimental condition.
For E2 therapy, a 3 mm pellet containing 2.5 mg or 15 mg (as indicated) 17β-estradiol (Innovative Research of America, Sarasota, Fla.) was implanted s.c. (dorsally) 7 days prior to immunization (EAE) or 14 days prior to analysis of naïve mice. These pellets are designed to release their contents at a constant rate over 60 days. Control animals were implanted with pellets containing saline. Serum levels of E2 were monitored by RIA. […]
For real-time RT-PCR analysis, total RNA was prepared using the Total RNeasy kit (Qiagen, Germantown, Md.) and cDNA was prepared using random hexamer primers (Invitrogen, Grand Island, N.Y.). Foxp3 message expression was quantified using the ABI 7000 Real-Time PCR System (Applied Biosystems, Foster City, Calif.). Amplification was performed in a total volume of 25 μl for 40 cycles and products were detected using SYBR Green I dye (Molecular Probes, Eugene, Oreg.). Samples were run in triplicate and relative expression level was determined by normalization to L32 with results presented as relative expression (RE) units. […]

[2] = tested on: EAE; test: EAE induced with MOG-35-55 peptide/CFA/pertussis toxin, clinical score; type: in vivo, C57BL/6 mice
Excerpt: Female C57BL/6 mice were pretreated with 17β-estradiol (E2) or placebo for 7 days prior to challenge with MOG-35-55 peptide/CFA/PM to induce EAE. At the peak of EAE in the placebo group (day 15 after induction), cells were harvested from both the placebo-treated mice (score=4.5-5) and E2-treated mice (score=0). Cell mixtures were combined within each treatment group. Five×10^4 CD4+CD25− responder cells in combination with 5×10^4 APC and the indicated ratios of CD4+CD25+ suppressor cells were stimulated in triplicate wells with anti-CD3 mAb for 3 days, with addition of [^3H]-thymidine for the last 12 h of culture. Representative data from two independent experiments are shown.
For E2 therapy, a 3 mm pellet containing 2.5 mg or 15 mg (as indicated) 17β-estradiol (Innovative Research of America, Sarasota, Fla.) was implanted s.c. (dorsally) 7 days prior to immunization (EAE) or 14 days prior to analysis of naïve mice. These pellets are designed to release their contents at a constant rate over 60 days. Control animals were implanted with pellets containing saline. Serum levels of E2 were monitored by RIA.
Briefly, mice were immunized s.c. in the flanks with 200 μg MOG-35-55 peptide in CFA (Difco Laboratories, Detroit, Mich.). Mice were also given pertussis toxin i.p on days 0 (75 ng) and 2 (200 ng).

SMILES: C[C@]12CC[C@@H]3c4ccc(O)cc4CC[C@H]3[C@@H]1CC[C@@H]2O [E2, 17β-estradiol]
- Foxp3 mRNA levels in CD4+ T cells increased ([1]; Esr1−/− mice lacking estrogen receptor-α, MOG-35-55 immunized): not
- FoxP3 protein expression and CD25+ number in E2-treated mice, Esr1−/− versus wild-type ([1]; western blot and flow cytometry): substantially lower
- Foxp3 mRNA levels in CD4+ T cells ([1]; wild-type C57BL/6 mice, MOG-35-55 immunized, versus placebo): significantly increased
- EAE score ([2]; E2 pretreatment 7 days before challenge, day 15 after induction (placebo 4.5-5)): 0
- protection from EAE ([2]; wild-type C57BL/6 mice, therapeutic doses of E2): protected from EAE
